Data from patent US6174907A, “Benzimidazole compounds containing 1,2,4-triazole ring, and compositions and methods of use containing the same” (Fuji Photo Film Co., Ltd., priority 1995, dated 2001).
Where two headings read alike, the source gives them in different places.

How the values were obtained:
[1] = system: mouse peritoneal macrophages; assay: Suppression of foaming of macrophages (cholesterol ester synthesis) in vitro; type: cell-based, mouse (female ICR); details: Mus musculus, Peritoneal macrophage, 5 μM, 16 hours, relative to control as 100%, smaller value = more potent suppression, read-out: Rate of CE synthesis (%)
Experimental: Activity of the compounds of the present invention for suppressing the foaming of macrophages
(§1) Activity of the compounds of the present invention for suppressing the foaming of macrophages, which triggers arterial sclerosis, was examined by an in vitro experiment using mouse peritoneal macrophages. 15-Week old female ICR mice (Nippon SLC) were subjected to bleeding by cutting off their cervicalis, and Hanks buffer (Nippon Seiyaku) was injected into their peritoneal cavities. After abdominal regions of the mice were massaged, the buffer was recovered immediately, and then the resulting buffer was centrifuged at 1,000 r.p.m. for five minutes to collect peritoneal macrophages. Then, the collected macrophages were suspended in GTI medium (Wako Pure Chemical Industries), and inoculated onto a 24-well microtiter plate. After the macrophages were cultivated at 37° C. under 5% CO2 for two hours, the culture medium was changed with Dulbecco Modified Eagle Medium (MEM, Nippon Seiyaku). The macrophages were further cultivated at 37° C. under 5% CO2 for 16 hours, and then a test compound and liposomes were added to the culture.
1) Test compound: dissolved in DMSO (Wako Pure Chemical Industries),
PC: Phosphatidylcholine (Funakoshi);
PS: Phosphatidylserine (Funakoshi);
DCP: Dicetylphosphate (Funakoshi);
CHOL: Cholesterol (Sigma)
(§2) After cultivation was further continued at 37° C. under 5% CO2 for 16 hours, lipid fraction was extracted with chloroform and methanol. The extracted lipid fraction was dissolved in isopropyl alcohol, and the produced cholesterol ester (CE) was quantified by an enzymatic luminescence method. Yield of the cholesterol ester was calculated as a relative ratio based on yield of the control as 100% where no test compound was added. Cytotoxicity was examined microscopically by observing morphological alteration of cells. In the tables, compound numbers correspond to those of the compounds of present invention described in the examples.

[2] = system: mouse peritoneal macrophages; assay: Cytotoxicity examined microscopically (morphological alteration of cells); type: cell-based, mouse (female ICR); details: 5 μM, observed microscopically
Experimental: as §1, §2

Row | SMILES | activity at 5 µM ([1]; Table 4) | Cytotoxicity ([2]; Table 4) | activity at 5 µM ([1]; Table 3) | Cytotoxicity ([2]; Table 3)
1 | c1ccc(SCCCCCCCCSc2nc3ccccc3[nH]2)nc1 [Compound B32] | 37% | Not observed |  | 
2 | Cc1ccc2[nH]c(SCCOCCSc3nc4ccccc4[nH]3)nc2c1 [Compound A21] |  |  | 24% | Not observed
3 | COc1ccc2[nH]c(SCCCCCSc3nc4cc(C)ccc4[nH]3)nc2c1 [Compound A4, 1-(2'-(5'-methoxybenzimidazolyl)thio)-5-(2"-(5"-methylbenzimidazolyl)thio)pentane] |  |  | 41% | Not observed
4 | c1ccc2[nH]c(SCCCCCSc3ncnc4nc[nH]c34)nc2c1 [Compound B59] | 9.2% | Not observed |  | 
5 | CC(=O)Nc1nnc(SCCCCCSc2nc3ccccc3[nH]2)n1C [Compound B9] | 35% | Not observed |  | 
6 | Cc1ccnc(SCCCCCSc2nc3ccccc3[nH]2)n1 [Compound B50] | 22% | Not observed |  | 
7 | Cc1nnc(SCCCCCSc2nc3ccccc3[nH]2)o1 [Compound B25] | 41% | Not observed |  | 
8 | c1ccc2[nH]c(SCCCCCSc3nnc(-c4ccncc4)o3)nc2c1 [Compound B24] | 9.5% | Not observed |  | 
9 | c1ccc(-c2nnc(SCCCCCSc3nc4ccccc4[nH]3)o2)cc1 [Compound B26] | 12% | Not observed |  | 
10 | Cn1cnnc1SCCCCCSc1nc2ccccc2[nH]1 [Compound B6] | 22% | Not observed |  | 
11 | Clc1cc2nc(SCCCCCCCCSc3nc4ccccc4[nH]3)[nH]c2cc1Cl [Compound A13, 1-(2'-(5',6'-dichlorobenzimidazolyl)thio)-8-(2"-benzimidazolylthio)octane] |  |  | 58% | Not observed
12 | Clc1ccc2sc(SCCCCCSc3nc4ccccc4[nH]3)nc2c1 [Compound A34, 1-(2'-benzimidazolylthio)-5-(2"-(5"-chlorobenzothiazolyl)thio)pentane] |  |  | 28% | Not observed
13 | Cc1nnc(SCCCCCSc2nc3ccccc3[nH]2)n1C [Compound B8] | 24% | Not observed |  | 
14 | FC(F)(F)c1cc2[nH]c(SCCCCCSc3nc4ccccc4[nH]3)nc2cc1Cl [Compound A16, 1-(2'-(5'-chloro-6'-trifluoromethylbenzimidazolyl)thio)-5-(2"-benzimidazolylthio)pentane] |  |  | 34% | Not observed
15 | CS(=O)(=O)Nc1ccc2[nH]c(SCCCCCSc3nc4ccccc4[nH]3)nc2c1 [Compound A7, 1-(2'-benzimidazolylthio)-5-(2"-(5"-methanesulfonylamino-benzimidazolyl)thio)pentane] |  |  | 22% | Not observed
16 | CCOC(=O)c1ccc2[nH]c(SCCCCCSc3nc4ccccc4[nH]3)nc2c1 [Compound A9, 1-(2'-(5'-ethoxycarbonylbenzimidazolyl)thio)-5-(2"-benzimidazolylthio)pentane] |  |  | 28% | Not observed
17 | Cc1cc2nc(CCCCCSc3nc4ccccc4[nH]3)[nH]c2cc1C [Compound A28, 2-(5-(2'-benzimidazolylthio)pentyl)-5,6-dimethylbenzimidazole] |  |  | 49% | Not observed
18 | Cc1ccc2[nH]c(SCCCCCSc3nc4ccccc4[nH]3)nc2c1 [Compound A1, 1-(2'-(5'-methylbenzimidazolyl)thio)-5-(2"-benzimidazolylthio)pentane] |  |  | 41% | Not observed
19 | Cn1c(CCCCCSc2nc3ccccc3n2C)nc2ccccc21 [Compound A26, 1-methyl-2-(5-(2'-(1-methylbenzimidazolyl)thio)pentyl)benzimidazole] |  |  | 35% | Not observed
20 | Cn1ccnc1SCCCCCSc1nc2ccccc2[nH]1 [Compound B2] | 16% | Not observed |  | 
21 | Cc1ccc2[nH]c(SCCCCCSc3nc4cc(Cl)c(Cl)cc4[nH]3)nc2c1 [Compound A14, 1-(2'-(5',6'-dichlorobenzimidazolyl)thio)-5-(2"-(5"-methylbenzimidazolyl)thio)pentane] |  |  | 42% | Not observed
22 | c1ccc2[nH]c(CCCCCSc3nc4ccccc4[nH]3)nc2c1 [Compound A27, 2-(5-(2'-benzimidazolylthio)pentyl)benzimidazole] |  |  | 48% | Not observed
23 | c1ccc(-n2nnnc2SCCCCCSc2nc3ccccc3[nH]2)cc1 [Compound B12] | 14% | Not observed |  | 

Row | SMILES | activity at 5 µM ([1]; Table 4) | Cytotoxicity ([2]; Table 4) | activity at 5 µM ([1]; Table 3) | Cytotoxicity ([2]; Table 3)
24 | Cn1nnnc1SCCCCCSc1nc2ccccc2[nH]1 [Compound B10] | 32% | Not observed |  | 
25 | CSc1nnc(SCCCCCSc2nc3ccccc3[nH]2)s1 [Compound B19] | 21% | Not observed |  | 
26 | CCC(=O)n1c(SCCCCCSc2nc3cc(S(=O)(=O)NC)ccc3n2C)nc2ccccc21 [Compound A25] |  |  | 32% | Not observed
27 | c1ccc(SCCCCSc2nc3ccccc3[nH]2)nc1 [Compound B29] | 14% | Not observed |  | 
28 | c1ccc2[nH]c(CCCCCCCSc3nc4ccccc4[nH]3)nc2c1 [Compound A31, 2-(7-(2'-benzimidazolylthio)heptyl)benzimidazole] |  |  | 53% | Not observed
29 | c1ccc2[nH]c(CCCCCCCCCCCSc3nc4ccccc4[nH]3)nc2c1 [Compound A32, 2-(11-(2'-benzimidazolylthio)undecyl)benzimidazole] |  |  | 62% | Not observed
30 | CCC(=O)n1c(CCCCCSc2nc3ccccc3n2C(=O)CC)nc2ccccc21 [Compound A24, 1-propionyl-2-(5-(2'-(1-propionylbenzimidazolyl)thio)pentyl)benzimidazole] |  |  | 40% | Not observed
31 | Cc1cc2nc(CCCCCSc3ccccn3)[nH]c2cc1C [Compound B45] | 48% | Not observed |  | 
32 | Cc1ccc2[nH]c(SCCCCCCSc3nc4ccccc4[nH]3)nc2c1 [Compound A19, 1-(2'-(5'-methylbenzimidazolyl)thio)-6-(2"-benzimidazolylthio)hexane] |  |  | 54% | Not observed
33 | CC1(C)COC(SCCCCCSc2nc3ccccc3[nH]2)=N1 [Compound B23] | 38% | Not observed |  | 
34 | Oc1ncnc2[nH]c(SCCCCCSc3nc4ccccc4[nH]3)nc12 [Compound B14] | 48% | Not observed |  | 
35 | Cc1cc2nc(SCCCCCSc3ccccn3)[nH]c2cc1C [Compound B33] | 18% | Not observed |  | 
36 | c1ccc(SCCCCCCCc2nc3ccccc3[nH]2)nc1 [Compound B47] | 23% | Not observed |  | 
37 | c1ccc(-n2cnnc2SCCCCCSc2nc3ccccc3[nH]2)cc1 [Compound B7] | 21% | Not observed |  | 
38 | Cc1ccnc(SCCCCCSc2nc3ccccc3[nH]2)c1 [Compound B41] | 19% | Not observed |  | 
39 | c1ccc2[nH]c(SCCCCCSc3ccncc3)nc2c1 [Compound B28] | 7.6% | Not observed |  | 
40 | c1ccc(SCCOCCSc2nc3ccccc3[nH]2)nc1 [Compound B67] | 54% | Not observed |  | 
41 | Clc1ccc2[nH]c(SCCCCCSc3nc4ccccc4[nH]3)nc2c1 [Compound A2, 1-(2'-(5'-chlorobenzimidazolyl)thio)-5-(2"-benzimidazolylthio)pentane] |  |  | 52% | Not observed
42 | CNS(=O)(=O)c1ccc2c(c1)nc(SCCCCCSc1ccccn1)n2C [Compound B66] | 52% | Not observed |  | 
43 | O=[N+]([O-])c1ccnc(SCCCCCSc2nc3ccccc3[nH]2)c1 [Compound B42] | 12% | Not observed |  | 
44 | Cc1cc2nc(SCCCCCSc3nc4ccccc4o3)[nH]c2cc1C [Compound A38] |  |  | 16% | Not observed
45 | Cc1ccc2[nH]c(SCCCCCSc3nc4cc(Cl)ccc4[nH]3)nc2c1 [Compound A3, 1-(2-(5'-chlorobenzimidazolyl)thio)-5-(2"-(5"-methylbenzimidazolyl)thio)pentane] |  |  | 36% | Not observed
46 | CCOC(=O)c1ccc2[nH]c(SCCCCCSc3ccccn3)nc2c1 [Compound B36] | 26% | Not observed |  | 
